Values after ≈ are worked out from the molar mass of the structure shown.
Tests used:
[1] = test system: P-388 leukemia; test: Effect on transplanted mouse leukemia P-388; format: in vivo, mouse (CDF1 F mice); conditions: IP, single injection day 1; for MST % T/C: >125 considered significant tumor inhibition; for Average weight change, day 5: control 0.6; for MST (median survival time): control 11.0
Procedure: 4'-Deschlororebeccamycin was also tested against the transplanted mouse leukemia P-388 and the results are shown below in Table 6. The methodology used generally followed the protocols of the National Cancer Institute [Cancer Chemotherapy Rep. Part 3, 3, 1-103 (1972)]. The essential experimental details are given at the bottom of Table 6.
Tumor inoculum: 10^6 ascites cells, ip
Treatment: Single injection on day 1 given i.p.
Evaluation: MST = median survival time
Effect: % T/C = (MST treated/MST control) × 100
Criteria: % T/C >125 considered significant tumor inhibition
Control: Saline (0.5 ml) given once daily i.p. for 5 days

[2] = test system: M. luteus A9547; test: Antibacterial activity, serial two-fold agar dilution; format: cell-based; conditions: Micrococcus luteus, read-out: Minimum Inhibitory Concentration (MIC)
Procedure: (§1) The antibacterial activity of 4'-deschlororebeccamycin was determined against a number of gram-positive and gram-negative organisms by the serial two-fold agar dilution method. The results are shown in Table 5 below in comparison with the activity of rebeccamycin.

[3] = test system: S. pneumoniae A9585; test: as above; format: cell-based; conditions: Streptococcus pneumoniae, read-out: Minimum Inhibitory Concentration (MIC)
Procedure: as §1

[4] = test system: P. aeruginosa A9843A; test: as above; format: cell-based; conditions: Pseudomonas aeruginosa, read-out: Minimum Inhibitory Concentration (MIC)
Procedure: as §1

[5] = test system: P. mirabilis A9900; test: as above; format: cell-based; conditions: Proteus mirabilis, read-out: Minimum Inhibitory Concentration (MIC)
Procedure: as §1

[6] = test system: S. marcescens A20019; test: as above; format: cell-based; conditions: Serratia marcescens, read-out: Minimum Inhibitory Concentration (MIC)
Procedure: as §1

[7] = test system: P. rettgeri A22424; test: as above; format: cell-based; conditions: Providencia rettgeri, read-out: Minimum Inhibitory Concentration (MIC)
Procedure: as §1

[8] = test system: S. coli A20341-1; test: as above; format: cell-based; conditions: read-out: Minimum Inhibitory Concentration (MIC)
Procedure: as §1

[9] = test system: S. aureus (Pen-Res) A9606; test: as above; format: cell-based; conditions: Staphylococcus aureus, read-out: Minimum Inhibitory Concentration (MIC)
Procedure: as §1

[10] = test system: E. cloacae A9656; test: as above; format: cell-based; conditions: Enterobacter cloacae, read-out: Minimum Inhibitory Concentration (MIC)
Procedure: as §1

[11] = test system: List. monocytogenes A15121; test: as above; format: cell-based; conditions: Listeria monocytogenes, read-out: Minimum Inhibitory Concentration (MIC)
Procedure: as §1

[12] = test system: S. aureus A9537; test: as above; format: cell-based; conditions: Staphylococcus aureus, read-out: Minimum Inhibitory Concentration (MIC)
Procedure: as §1

[13] = test system: K. pneumoniae A20468; test: as above; format: cell-based; conditions: Klebsiella pneumoniae, read-out: Minimum Inhibitory Concentration (MIC)
Procedure: as §1

[14] = test system: S. coli A15119; test: as above; format: cell-based; conditions: read-out: Minimum Inhibitory Concentration (MIC)
Procedure: as §1

[15] = test system: S. pyogenes A9604; test: as above; format: cell-based; conditions: Streptococcus pyogenes, read-out: Minimum Inhibitory Concentration (MIC)
Procedure: as §1

[16] = test system: List. monocytogenes A20025; test: as above; format: cell-based; conditions: Listeria monocytogenes, read-out: Minimum Inhibitory Concentration (MIC)
Procedure: as §1

[17] = test system: P. vulgaris A21559; test: as above; format: cell-based; conditions: Proteus vulgaris, read-out: Minimum Inhibitory Concentration (MIC)
Procedure: as §1

[18] = test system: K. pneumoniae A9664; test: as above; format: cell-based; conditions: Klebsiella pneumoniae, read-out: Minimum Inhibitory Concentration (MIC)
Procedure: as §1

[19] = test system: S. faecalis A20688; test: as above; format: cell-based; conditions: Enterococcus faecalis, read-out: Minimum Inhibitory Concentration (MIC)
Procedure: as §1

[20] = test system: P. aeruginosa A21213; test: as above; format: cell-based; conditions: Pseudomonas aeruginosa, read-out: Minimum Inhibitory Concentration (MIC)
Procedure: as §1

[21] = test system: M. morganii A15153; test: as above; format: cell-based; conditions: Morganella morganii, read-out: Minimum Inhibitory Concentration (MIC)
Procedure: as §1

[22] = test system: E. cloacae A9659; test: as above; format: cell-based; conditions: Enterobacter cloacae, read-out: Minimum Inhibitory Concentration (MIC)
Procedure: as §1

[23] = test system: gram-positive and gram-negative organisms; test: Antimicrobial activity (general statement); format: cell-based
Procedure: as §1

[24] = Solubility; format: physicochemical

With `CO[C@H]1[C@H](O)[C@@H](O)[C@H](n2c3c(Cl)cccc3c3c4c(c5c6cccc(Cl)c6[nH]c5c32)C(=O)NC4=O)O[C@@H]1CO` [Rebeccamycin] the “MST % T/C” value ([1]; 16 mg/kg/inj) was 136%, the “Average weight change, day 5” value ([1]; 16 mg/kg/inj) was -0.8 gm and the “MST (median survival time)” value ([1]; 16 mg/kg/inj) was 15.0 days. For the same molecule, the “MST % T/C” value ([1]; 32 mg/kg/inj) was 118%, the “Average weight change, day 5” value ([1]; 32 mg/kg/inj) was -0.6 gm and the “MST (median survival time)” value ([1]; 32 mg/kg/inj) was 13.0 days. The “MST % T/C” value ([1]; 64 mg/kg/inj) was 136%, the “Average weight change, day 5” value ([1]; 64 mg/kg/inj) was 0.3 gm and the “MST (median survival time)” value ([1]; 64 mg/kg/inj) was 15.0 days. For the same molecule, the “MST % T/C” value ([1]; 128 mg/kg/inj) was 132%, the “Average weight change, day 5” value ([1]; 128 mg/kg/inj) was 0.2 gm and the “MST (median survival time)” value ([1]; 128 mg/kg/inj) was 14.5 days. For the same molecule, the “MST % T/C” value ([1]; 256 mg/kg/inj) was 136%, the “Average weight change, day 5” value ([1]; 256 mg/kg/inj) was -0.3 gm and the “MST (median survival time)” value ([1]; 256 mg/kg/inj) was 15.0 days. The “MST % T/C” value ([1]; 512 mg/kg/inj) was 155%, the “Average weight change, day 5” value ([1]; 512 mg/kg/inj) was -1.4 gm and the “MST (median survival time)” value ([1]; 512 mg/kg/inj) was 17.0 days. It also gave an MIC [2] of 0.5 µg/mL (≈ 0.877 µM), an MIC [3] of over 125 µg/mL and an MIC [4] of over 250 µg/mL. It also gave an MIC [5] of over 250 µg/mL, an MIC [6] of over 250 µg/mL and an MIC [7] of over 250 µg/mL. It also gave an MIC [8] of over 250 µg/mL, an MIC [9] of over 250 µg/mL and an MIC [10] of over 250 µg/mL. It also gave an MIC [11] of 32 µg/mL (≈ 56.1 µM), an MIC [12] of 0.5 µg/mL (≈ 0.877 µM) and an MIC [13] of over 250 µg/mL. The MIC [14] was over 250 µg/mL, the MIC [15] was over 125 µg/mL and the MIC [16] was 32 µg/mL (≈ 56.1 µM). It also gave an MIC [17] of over 250 µg/mL, an MIC [18] of over 250 µg/mL and an MIC [19] of 8 µg/mL (≈ 14 µM). The MIC [20] was over 250 µg/mL, the MIC [21] was over 250 µg/mL and the MIC [22] was over 250 µg/mL.
For `COC1C(CO)OC(n2c3c(Cl)cccc3c3c4c(c5c6ccccc6[nH]c5c32)C(=O)NC4=O)C(O)C1O` (stereo not drawn) [4'-Deschlororebeccamycin], the antimicrobial activity [23] was “exhibits antimicrobial activity”, the solubility in dimethylsulfoxide ([24]; dimethylsulfoxide) was “soluble” and the solubility in water ([24]; water) was “insoluble”. For the same molecule, the “MST % T/C” value ([1]; 16 mg/kg/inj) was 164%, the “Average weight change, day 5” value ([1]; 16 mg/kg/inj) was -0.9 gm and the “MST (median survival time)” value ([1]; 16 mg/kg/inj) was 18.0 days. For the same molecule, the “MST % T/C” value ([1]; 32 mg/kg/inj) was 141%, the “Average weight change, day 5” value ([1]; 32 mg/kg/inj) was -0.8 gm and the “MST (median survival time)” value ([1]; 32 mg/kg/inj) was 15.5 days. The “MST % T/C” value ([1]; 64 mg/kg/inj) was 136%, the “Average weight change, day 5” value ([1]; 64 mg/kg/inj) was -0.8 gm and the “MST (median survival time)” value ([1]; 64 mg/kg/inj) was 15.0 days. The “MST % T/C” value ([1]; 128 mg/kg/inj) was 159%, the “Average weight change, day 5” value ([1]; 128 mg/kg/inj) was -0.6 gm and the “MST (median survival time)” value ([1]; 128 mg/kg/inj) was 17.5 days. The “MST % T/C” value ([1]; 256 mg/kg/inj) was 136%, the “Average weight change, day 5” value ([1]; 256 mg/kg/inj) was -1.5 gm and the “MST (median survival time)” value ([1]; 256 mg/kg/inj) was 15.0 days. For the same molecule, the “MST % T/C” value ([1]; 512 mg/kg/inj) was 141%, the “Average weight change, day 5” value ([1]; 512 mg/kg/inj) was -1.0 gm and the “MST (median survival time)” value ([1]; 512 mg/kg/inj) was 15.5 days. For the same molecule, the MIC [2] was 1 µg/mL (≈ 1.87 µM), the MIC [3] was 32 µg/mL (≈ 59.7 µM) and the MIC [4] was over 250 µg/mL. For the same molecule, the MIC [5] was over 250 µg/mL, the MIC [6] was over 250 µg/mL and the MIC [7] was over 250 µg/mL. The MIC [8] was over 250 µg/mL, the MIC [9] was over 250 µg/mL and the MIC [10] was over 250 µg/mL. The MIC [11] was 32 µg/mL (≈ 59.7 µM), the MIC [12] was 2 µg/mL (≈ 3.73 µM) and the MIC [13] was over 250 µg/mL. For the same molecule, the MIC [14] was over 250 µg/mL, the MIC [15] was 32 µg/mL (≈ 59.7 µM) and the MIC [16] was 63 µg/mL (≈ 118 µM). For the same molecule, the MIC [17] was over 250 µg/mL, the MIC [18] was over 250 µg/mL and the MIC [19] was 16 µg/mL (≈ 29.9 µM). It also gave an MIC [20] of over 250 µg/mL, an MIC [21] of over 250 µg/mL and an MIC [22] of over 250 µg/mL.
